Values of other authors, collected in patent US4291169A, “Substituted naphthoic acids” (American Cyanamid Company, priority 1980, dated 1981).

Columns and labels:
collagenase [1] = settings: Thromb. Res., 10(4), 605-11 (1977)
collagenase [2] = settings: Woolley et al. (1978); Seifter and Harper (1971)
alkali burned rabbit = settings: directly applied to corneal ulcerations
corneal ulceration = settings: human
[3] = compared with cysteine

Cc1ccc(C(=O)Nc2ccc(S(=O)(=O)O)c3cc(S(=O)(=O)O)cc(S(=O)(=O)O)c23)cc1NC(=O)c1cccc(NC(=O)Nc2cccc(C(=O)Nc3cc(C(=O)Nc4ccc(S(=O)(=O)O)c5cc(S(=O)(=O)O)cc(S(=O)(=O)O)c45)ccc3C)c2)c1 [Suramin]
inhibition of the activity of collagenase (in words) (collagenase [1]): not inhibiting the action of collagenase

Cc1cc(-c2ccc(/N=N/c3c(S(=O)(=O)O)cc4cc(S(=O)(=O)O)cc(N)c4c3O)c(C)c2)ccc1/N=N/c1c(S(=O)(=O)O)cc2cc(S(=O)(=O)O)cc(N)c2c1O [trypan blue]
inhibition of the activity of collagenase (in words) (collagenase [1]): inhibiting the activity of collagenase, or a proteinase contaminant in the collagenase preparation

sodium auriothiomalate
inhibition of connective tissue destruction / collagenase (in words) (collagenase [2]): collagenase inhibitors

α2 -macroglobulin: Naturally occurring collagnase inhibitors include the serum components, α2 -macroglobulin and β1-anticollagenase
inhibition of connective tissue destruction / collagenase (in words) (collagenase [2]): Naturally occurring collagnase inhibitors

c1cnc2c(c1)ccc1cccnc12 [1,10-phenanthroline]
inhibition of connective tissue destruction / collagenase (in words) (collagenase [2]): collagenase inhibitors

O=C([O-])CN(CCN(CC(=O)[O-])CC(=O)[O-])CC(=O)[O-].[Ca+2].[Ca+2] [Calcium ethylenediaminetetraacetate]
frequency of ulceration (in words) (alkali burned rabbit): reduce the frequency of ulceration

N[C@@H](CS)C(=O)O [cysteine]
inhibition of connective tissue destruction / collagenase (in words) (collagenase [2]): collagenase inhibitors | effect in treatment of acute and chronic corneal ulceration (in words) (corneal ulceration): effective in the treatment of acute and chronic corneal ulceration

O[C@H](CS)[C@H](O)CS (relative stereo) [dithiothretol]
inhibition of connective tissue destruction / collagenase (in words) (collagenase [2]): collagenase inhibitors

CC(=O)N[C@@H](CS)C(=O)O [acetylcysteine]
stability (in words) [3]: greater stability | effect in treatment of acute and chronic corneal ulceration (in words) (corneal ulceration): effective in the treatment of acute and chronic corneal ulceration | frequency of ulceration (in words) (alkali burned rabbit): reduce the frequency of ulceration
